Like-named read-outs stand apart in the source and are kept apart here.
Experiments:
KLK7 [1] = biological target: KLK7
KLK7 [2] = biological target: KLK7; remark: listed apart in the source
Excerpt: Head of the field: Ki [nM]
In contrast to the first generation, they contain only two cysteines cyclized with one linker. The K values are shown as mean of three measurements ±SD.
First copying reader's note: The two cysteines are bridged by a drawn acetone (C=O) linker shown above the sequence columns; the Ki cells hold the value ± its error against KLK7.

Row | Substance | Ki (KLK7 [1]) [nM] | Ki (KLK7 [2]) [nM]
1 | P C L Y L S C P [compound 089] | 50 ± 5 | 
2 | P C L Y L S R C S [compound 095] |  | 90 ± 7
3 | P C L Y M A R C S [compound 111] |  | 10 ± 1.3

From patent US20220267379A1, “NOVEL INHIBITORS OF […] AND USES THEREOF” (Ecole Polytechnique Federale de Lausanne (EPFL), priority 2019, published 2022)
